Experimental data: the supplement of paper PMC10307832

What was measured:
Assay in all cases: relative viability (nuclei count vs DMSO), 5 days (fraction); higher = more cells survive
[1] = tested on: NCI-H1666
Outline: (§1)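 The day after seeding in 1536-well plates, lung cancer cell lines were treated by pin tool with a single drug, or with a fixed anchor-drug dose together with five library-drug doses (not always all listed) in √10 steps. After 5 days, a combined fix-and-stain solution (final 0.05% Triton X-100, 1% formaldehyde, 1 ug/ml Hoechst) was added. Nuclei counted on 4× images gave relative viability as treated counts over vehicle counts, reported as the median of duplicate plates.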

[2] = tested on: NCI-H23
Outline: as §1

[3] = tested on: HCC-78
Outline: as §1

[4] = tested on: NCI-H2126
Outline: as §1

[5] = tested on: NCI-H650
Outline: as §1

[6] = tested on: NCI-H520
Outline: as §1

[7] = tested on: NCI-H661
Outline: as §1

[8] = tested on: LC-2-ad
Outline: as §1

[9] = tested on: RERF-LC-KJ
Outline: as §1

[10] = tested on: HCC-827
Outline: as §1

[11] = tested on: NCI-H1915
Outline: as §1

[12] = tested on: NCI-H2087
Outline: as §1

Oc1nc(-c2ccc(C(F)(F)F)cc2)nc2c1CSCC2 [XAV939] + C[C@@H](Oc1cc(-c2cnn(C3CCNCC3)c2)cnc1N)c1c(Cl)ccc(F)c1Cl [Crizotinib] (partner 1 µM)
relative viability ([1]; first compound 0.08 µM): 0.971 | relative viability ([1]; first compound 0.253 µM): 0.64 | relative viability ([1]; first compound 0.8 µM): 0.781 | relative viability ([1]; first compound 2.53 µM): 0.473 | relative viability ([2]; first compound 0.08 µM): 0.502 | relative viability ([2]; first compound 0.253 µM): 0.425 | relative viability ([2]; first compound 0.8 µM): 0.436 | relative viability ([2]; first compound 2.53 µM): 0.426 | relative viability ([3]; first compound 0.08 µM): 0.342 | relative viability ([3]; first compound 0.253 µM): 0.316 | relative viability ([3]; first compound 0.8 µM): 0.326 | relative viability ([3]; first compound 2.53 µM): 0.299 | relative viability ([4]; first compound 0.08 µM): 1.12 | relative viability ([4]; first compound 0.253 µM): 0.95 | relative viability ([4]; first compound 0.8 µM): 0.938 | relative viability ([4]; first compound 2.53 µM): 0.828 | relative viability ([5]; first compound 0.08 µM): 1.01 | relative viability ([5]; first compound 0.253 µM): 0.945 | relative viability ([5]; first compound 0.8 µM): 0.736 | relative viability ([5]; first compound 2.53 µM): 0.545 | relative viability ([6]; first compound 0.08 µM): 0.778 | relative viability ([6]; first compound 0.253 µM): 0.665 | relative viability ([6]; first compound 0.8 µM): 0.668 | relative viability ([6]; first compound 2.53 µM): 0.68 | relative viability ([7]; first compound 0.08 µM): 0.922 | relative viability ([7]; first compound 0.253 µM): 0.961 | relative viability ([7]; first compound 0.8 µM): 0.953 | relative viability ([7]; first compound 2.53 µM): 0.969 | relative viability ([8]; first compound 0.08 µM): 0.468 | relative viability ([8]; first compound 0.253 µM): 0.382 | relative viability ([8]; first compound 0.8 µM): 0.435 | relative viability ([8]; first compound 2.53 µM): 0.489 | relative viability ([9]; first compound 0.08 µM): 0.807 | relative viability ([9]; first compound 0.253 µM): 0.82 | relative viability ([9]; first compound 0.8 µM): 0.741 | relative viability ([9]; first compound 2.53 µM): 0.582 | relative viability ([10]; first compound 0.08 µM): 0.897 | relative viability ([10]; first compound 0.253 µM): 0.818 | relative viability ([10]; first compound 0.8 µM): 0.887 | relative viability ([10]; first compound 2.53 µM): 0.949 | relative viability ([11]; first compound 0.08 µM): 0.949 | relative viability ([11]; first compound 0.253 µM): 0.899 | relative viability ([11]; first compound 0.8 µM): 0.891 | relative viability ([11]; first compound 2.53 µM): 0.86 | relative viability ([12]; first compound 0.08 µM): 0.879 | relative viability ([12]; first compound 0.253 µM): 0.998
